Test system: P. falciparum 3D7
Assay: DAPI stain fluorescent high content imaging assay, P. falciparum 3D7 (confirmatory screen, Avery)
Details: Plasmodium falciparum; for EC50: 3D7, read-out: EC50_nM; for inhibition of growth at 5 µM: 3D7, read-out: percent_inh @ 5 uM; for inhibition of growth at 2 µM: 3D7, read-out: percent_inh @ 2 uM

Row | EC50 [µM] | SMILES | inhibition of growth at 5 µM [%] | inhibition of growth at 2 µM [%]
1 | 0.719 | CCN(CC)CCn1c(=N)n(CC(O)c2ccc(Cl)c(Cl)c2)c2ccccc21 (stereo not drawn) [MMV000248] | 97 | –
2 | 0.746 | CCOc1cc2c(cc1OCC)C(c1cc(Cl)ccc1O)NCC2 (stereo not drawn) [MMV000478] | 98 | –
3 | 0.589 | COc1ccc(Nc2nc(NCc3ccccc3)c3ccccc3n2)cc1 [MMV000963] | – | –
4 | 2 | COc1ccc2nc(C)cc(Nc3ccc(Cl)cc3)c2c1 [MMV007875] | – | 95
5 | 4 | Cc1ccc(Nc2nc(N)c3ccccc3n2)cc1Cl [MMV011522] | – | 96
6 | 0.941 | CCOc1ccc(C2N(C)c3ccccc3N2C)cc1 [MMV075490] | 72 | –
7 | 1 | Nc1nc(Nc2cccc(F)c2)nc2ccccc12 [MMV080034] | – | –
8 | 0.686 | COc1ccc2nc(C)cc(Nc3ccccc3O)c2c1 [MMV274073] | – | –
9 | 1.05 | CCOc1c(Cl)cc(CNCC(O)c2ccccc2)cc1OC (stereo not drawn) [MMV396632] | – | –
10 | 0.615 | CCOC(=O)c1c(C)n(-c2ccccc2)c2ccc(OC(=O)c3cc(OC)c(OC)c(OC)c3)cc12 [MMV396664] | – | –
11 | 0.898 | COc1cc(C(=O)Nc2nc3c(cc4c5c(cccc53)CC4)s2)cc(OC)c1OC [MMV396665] | – | –
12 | 0.218 | O=C(CSc1nccn2nc(-c3ccccc3)cc12)Nc1cc(C(F)(F)F)ccc1Cl [MMV396678] | – | –
13 | 0.0899 | COc1ccc(-c2cc3c(SCC(=O)Nc4cc(C(F)(F)F)ccc4Cl)nccn3n2)cc1 [MMV396679] | – | –
14 | 1.39 | COc1cccc(Cn2c(Oc3ccccc3)nc3c2c(=O)n(C)c(=O)n3C)c1 [MMV396705] | – | –
15 | 0.916 | COc1ccc(CCN2C(=O)c3[nH]nc(-c4cc(Cl)c(C)cc4O)c3C2c2ccccc2F)cc1 (stereo not drawn) [MMV396717] | – | –
16 | 1.06 | OC(CNCC1CCCO1)Cn1c2ccc(Cl)cc2c2cc(Cl)ccc21 (stereo not drawn) [MMV396736] | – | –
17 | 1.16 | CC(C)(C)CC(C)(C)NCC(O)COc1ccc(Cl)cc1Cl (stereo not drawn) [MMV396794] | – | –
18 | 0.551 | COc1ccc(C=C2SC(Nc3ccccc3)=NC2=O)cc1 [MMV665836] | 71 | –
19 | 0.939 | COC(=O)c1ccc(Cl)c2c1C1C=CCC1C(c1cccc3ccccc13)N2 (stereo not drawn) [MMV667489] | – | –
20 | 1.79 | COc1ccc(C2c3ccc4ccccc4c3Oc3ncn(CCCn4ccnc4)c(=N)c32)cc1OC (stereo not drawn) [MMV667490] | – | –

Continued, molecule first:

Row | SMILES | EC50 [µM] | inhibition of growth at 5 µM [%] | inhibition of growth at 2 µM [%]
21 | CCOC(=O)c1cnc2ccc(OC)cc2c1Nc1ccc(N2CCN(C)CC2)cc1 [MMV000704] | 1.1 | – | –
22 | Oc1ccc(-c2nc(-c3ccc4oc5ccc(-c6[nH]c(-c7ccc(O)cc7)nc6-c6ccccc6)cc5c4c3)c(-c3ccccc3)[nH]2)cc1 [MMV000753] | 0.326 | 98 | –
23 | CN1CCN(c2nc(Nc3ccc(O)cc3)nc3ccccc23)CC1 [MMV000986] | 1.43 | – | –
24 | COc1cc2cc(C(=O)Nc3ccccc3)c(N)nc2cc1OC [MMV006767] | – | 99 | –
25 | COc1ccccc1N1C(=N)SC(=Cc2ccc(OCc3ccccc3F)cc2)C1=O [MMV007199] | 0.478 | 95 | –
26 | Brc1ccc(Nc2nc3ccccc3nc2Nc2ccc(Br)cc2)cc1 [MMV007224] | 1.06 | 98 | –
27 | O=c1nc(C=Cc2ccc(Cl)cc2)oc2ccccc12 [MMV007977] | 0.995 | 76 | –
28 | Cc1cc(C)cc(Nc2cc(C)nc3nc(C(F)(F)F)nn23)c1 [MMV011259] | 0.0857 | – | –
29 | Oc1ccccc1CN1CCN(C(c2ccccc2)c2ccccc2)CC1 [MMV011795] | 0.611 | 97 | –
30 | COc1ccc(C=C2SC(Nc3ccc(F)cc3)=NC2=O)c(OC)c1 [MMV084434] | 0.591 | 92 | –
31 | CCn1nc(-c2ccc(C(=O)OC)cc2)nc2c(=O)n(C)c(=O)nc1-2 [MMV306025] | 0.693 | – | –
32 | COc1ccc(-c2nc(N3CCN(C(=O)C4CCCCC4)CC3)c3c4c(sc3n2)CCCC4)cc1 [MMV396594] | 1.06 | – | –
33 | CCOc1ccccc1CN1CCc2nc3cc(C(C)(C)C)nn3c(O)c2C1 [MMV396595] | 1.01 | – | –
34 | CCOc1cc(CNC(C)C(O)c2ccccc2)cc(Cl)c1OCC (stereo not drawn) [MMV396633] | 1.24 | – | –
35 | O=C(NC1CCN(Cc2ccccc2)CC1)c1cc2nc(-c3ccc(Cl)s3)cc(C(F)(F)F)n2n1 [MMV396635] | 0.959 | – | –
36 | Cc1sc(NC(=O)c2ccccc2)c(C(c2cccs2)N2CCN(c3ccccc3)CC2)c1C (stereo not drawn) [MMV396652] | 1.18 | – | –
37 | Cc1sc(NC(=O)c2ccco2)c(C(c2cccnc2)N2CCC(Cc3ccccc3)CC2)c1C (stereo not drawn) [MMV396663] | 1.02 | – | –
38 | Cc1cc(N2CCCC2)nc(Nc2ccc(NC(=O)CCc3ccccc3)cc2)n1 [MMV396669] | 1.07 | – | –
39 | O=C(NCC(c1ccsc1)N1CCCCCC1)c1ccc(C(F)(F)F)cc1 (stereo not drawn) [MMV396672] | 0.433 | – | –
40 | Cc1ccc(-c2cc3c(SCC(=O)Nc4cc(C(F)(F)F)ccc4Cl)nccn3n2)cc1 [MMV396680] | 0.0928 | – | –
41 | Cc1cc(NC(=O)c2cccc(C(F)(F)F)c2)n(-c2nc(-c3ccc4c(c3)OCO4)cs2)n1 [MMV396681] | 0.959 | – | –

Row | SMILES | EC50 [µM] | inhibition of growth at 5 µM [%] | inhibition of growth at 2 µM [%]
42 | C[n+]1c2ccccc2nc2ccc(NCCO)cc21 [MMV396693] | 0.296 | – | –
43 | CCN(CC)CCNc1ncnc2c1[nH]c1ccc(Cl)cc12 [MMV396703] | 0.406 | – | –
44 | CN1CCN(c2ncnc3c2[nH]c2ccc(Cl)cc23)CC1 [MMV396704] | 1.19 | – | –
45 | CC1(c2ccccc2)Nc2ccccc2-c2nc3ccccc3n21 (stereo not drawn) [MMV396715] | 1.73 | – | –
46 | COc1cccc(C2(C)Nc3ccccc3-c3nc4ccccc4n32)c1 (stereo not drawn) [MMV396719] | 1.15 | – | –
47 | N=c1n(CCN2CCCCC2)c2ccccc2n1CC(=O)c1ccc(Cl)c(Cl)c1 [MMV396723] | 1.24 | – | –
48 | N#Cc1nc(Cc2cccc3ccccc23)oc1N1CCN(C(c2ccccc2)c2ccccc2)CC1 [MMV396726] | 1.16 | – | –
49 | CC(C)CNC(=O)c1c(N)n(CCc2ccccc2F)c2nc3ccccc3nc12 [MMV396744] | 0.832 | – | –
50 | COc1ccc2c(c1)C1(Nc3ccccc3-c3nc4ccccc4n31)C(=O)N2 (stereo not drawn) [MMV396749] | 0.928 | – | –
51 | O=C(NNc1cc(N2CCCC2)nc(N2CCCC2)n1)c1ccccc1 [MMV396770] | 1.33 | – | –
52 | COc1ccc(-c2c(C)nn3c(N)c(C#N)cnc23)cc1OC [MMV396797] | 0.477 | – | –
53 | Cc1cccc(-n2ncc3c(=O)[nH]c(-n4nc(C)cc4NC(=O)c4cc5ccccc5o4)nc32)c1 [MMV403679] | 0.929 | – | –
54 | Nc1ccn([C@@H]2O[C@H](CO)[C@@H](O)[C@H]2O)c(=O)n1 [MMV638723] | 0.385 | – | –
55 | O=C1C2=C(Nc3ccccc3SC2c2ccccc2)c2ccccc21 (stereo not drawn) [MMV645672] | 0.89 | – | –
56 | O=C(Nc1cccc(C2=NCCN2)c1)Nc1cccc(C2=NCCN2)c1 [MMV665810] | 1.01 | 83 | –
57 | Oc1c(C(Nc2ccccn2)c2cccc(Oc3ccccc3)c2)ccc2cccnc12 (stereo not drawn) [MMV665814] | 1.01 | 97 | –
58 | CCOc1ccc(N2C(N)=NC(N)=NC2(C)C)cc1 [MMV667486] | – | – | 92
59 | CN(C)c1ccc(N2C(N)=NC(N)=NC2(C)C)cc1 [MMV667487] | – | – | 95
60 | COc1ccc(C2c3ccc4ccccc4c3Oc3ncn(CCCN(C)C)c(=N)c32)cc1 (stereo not drawn) [MMV667491] | 1.23 | – | –
61 | CN(N=O)C1=C(NC2CCCCC2)C(=O)c2ccccc2C1=O [MMV667492] | 1.19 | – | –

From PMC3684613 (PLoS ONE, 2013)
